Test results taken from patent US9387204B2, “Fused bicyclic imidazoles” (BAYER INTELLECTUAL PROPERTY GmbH, priority 2007, dated 2016).
pIC50: −log10 of the molar value. Read-outs that look alike come from different tables or passages of the source.

Experiments:
phospho-Akt (Ser473) = test: Cellular PI3K/Akt pathway assay (phospho-Akt ELISA); assay type: cell-based; conditions: MCF7 cells, β-Heregulin stimulated, 48 h, phospho-Akt1 (Ser473) ELISA
Protocol: In order to study the cellular activity of the compounds according to the present invention, an Enzyme Linked Immunosorbent Assay (ELISA)-based assay has been used specific phospho-AKT. The assay is based on a Sandwich ELISA kit (PathScan™ Phospho-Akt1 (Ser473); Cell Signaling, USA; #7160).
The ELISA Kit detects endogenous levels of phosphorylated Akt protein. A phospho-Akt (Ser473) antibody (Cell Signaling, USA; #9271) has been coated onto the microwells. After incubation with cell lysates, the coated antibody captures the phosphorylated Akt protein. Following extensive washing, Akt1 monoclonal antibody (Cell Signaling, USA; #2967) is added to detect the captured phospho-Akt1 protein. HRP-linked anti-mouse antibody (HRP: horseradish peroxidase; Cell Signaling, USA; #7076) is then used to recognize the bound detection antibody. HRP substrate (=3,3′,5,5′-tetramethylbenzidine (TMB); Cell Signaling, USA; #7160) is added to develop colour. The magnitude of optical density for this developed color is proportional to the quantity of phosphorylated Akt protein. MCF7 cells (ATCC HTB-22) are seeded into 96 well fate bottom plates at a density of 10000 cells/well. 24 hours after seeding, the cells are serum starved using low-serum medium (IMEM media including 0.1% charcoal treated FCS (FCS: fetal calf serum)). […] To stimulate Akt phosphorylation, β-Heregulin (20 ng/ml β-HRG) is added in parallel to the compounds. Wells containing unstimulated control cells (no β-Heregulin stimulation) are incubated with or without the diluted compound. Wells containing untreated control cells (no compound) are filled with medium containing 0.5% v:v DMSO and are or are not stimulated with β-Heregulin.
Cells are harvested and lysed with brief sonification in 1× cell lysis buffer (20 mM Tris (pH7.5), 150 mM NaCl, 1 mM ethylene diaminetetraacetate (EDTA), 1 mM ethylene glycolbis(2-aminoethyl)-N,N,N′,N′-tetraacetic acid (EGTA), 1 vol % Triton X-100, 2.5 mM sodium pyrophosphate, 1 mM β-glycerolphosphate, 1 mM Na3VO4, 1 μg/ml leupeptin). The lysate is centrifuged for 10 min. at 4° C. and the supernatant is transferred to a new tube. 100 μl of sample diluent (0.1 vol % Tween-20, 0.1 vol % sodium azide in phosphate buffered saline (PBS)) are added to a microcentrifuge tube and 100 μl of cell lysate are transferred into the tube and vortexed. 100 μl of each diluted cell lysate are added to the appropriate ELISA well, and incubated overnight at 4° C. The plates are washed 4 times with 1× wash buffer (1 vol % tween-20, 0.33 vol % thymol, in PBS). Next 100 μl of detection antibody (Akt1 (2H10) monoclonal detection antibody; Cell Signaling, USA; #2967) are added to each well and incubation continued for 1 h at 37° C. The washing procedure is repeated between each step. 100 μl of secondary antibody (anti-mouse IgG HRP-linked antibody; Cell Signaling, USA; #7076) are added to each well and incubated for 30 min. at 37° C. Than, 100 μl of TMB substrate (0.05% 3,3′,5,5′ tetramethylbenzidine, 0.1% hydrogen peroxide, complex polypeptides in a buffered solution; Cell Signaling, USA; #7160) are added to each well and incubated for 30 min. at 25° C. Finally 100 μl of STOP solution (0.05 vol % α and β unsaturated carbonyl compound) are added to each well and the plate are shaked gently. The absorbance is measured at ? 450 nm (Wallac Victor2; Perkin Elmer, USA) within 30 min. after adding the STOP solution. The analysis of the data is performed using a statistical program (Excel; Microsoft, USA). Preferred compounds show an inhibitory activity towards Akt phosphorylation below 10 μM.

A549 cells [1] = tested on: A549 cells
Protocol: (§1) The anti-proliferative activity of the compounds as described herein, is evaluated using the OvCAR3, HCT116 and A549 cell lines and the Alamar Blue (Resazurin) cell viability assay (O'Brien et al. Eur J Biochem 267, 5421-5426, 2000). Resazurin is reduced to the fluorescent resorufin by cellular dehydrogenase activity, correlating with viable, proliferating cells. Test compounds are dissolved as 10 mM solutions in DMSO and subsequently diluted. Cells like HCT116 or A549 cells were seeded into 96 well flat bottom plates at a density of 10000 cells/well (OvCAR3 cells), 1000 cells/well (HCT116 cells) or 2000 cells/well (A549 cells) in a volume of 200 μl/well. 24 hours after seeding, 1 μl each of the compound dilutions are added into each well of the 96 well plates. Each compound dilution is tested as at least as duplicates. Wells containing untreated control cells were filled with 200 μl DMEM (Dulbecco's Modified Eagle Medium) containing 0.5 vol % v:v DMSO. The cells are then incubated with the substances for 72 h at 37° C. in a humidified atmosphere containing 5 vol % CO2. To determine the viability of the cells, 20 μl of a Resazurin solution (90 mg/l) are added. After 4 h incubation at 37° C., the fluorescence is measured by extinction at ? =544 nm and an emission of ? =590 nm (Wallac Victor2; Perkin Elmer, USA). For the calculation of the cell viability, the emission value from untreated cells is set as 100% viability and the fluorescence intensity of treated cells are set in relation to the values of untreated cells. Viabilities are expressed as % values. The corresponding IC50 values of the compounds for cytotoxic activity are determined from the concentration-effect curves by means of non-linear regression. The analysis of the data is performed using a biostatistical program (Graph Pad Prism, USA).

phospho-GSK3 (Ser9) = test: Cellular pGSK3 assay (phospho-GSK3 ELISA); assay type: cell-based; conditions: Homo sapiens, MCF7 cells, 48 h, read-out: Cellular pGSK3 pathway assay
Protocol: In order to study the cellular activity of the compounds according to the present invention, an ELISA-based assay has been established for the phosphorylated protein glycogen synthetase kinase 3 (GSK3). The assay is based on a solid phase sandwich ELISA that detects endogenous levels of phosphorylated GSK3 using a phospho-GSK3 (Ser9) specific antibody (BioSource International, Inc.; Catalog #KHO0461). After incubation with cell lysates, the coated antibody captures the phosphorylated GSK3 protein. Following extensive washing, GSK3 polyclonal antibody is added to detect the captured phospho-GSK3 protein. Secondary antibody (anti-rabbit IgG-HRP) is then used to recognize the bound detection antibody. After the second incubation and washing to remove all the excess anti-rabbit IgG-HRP, a substrate solution is added, which is acted upon by the bound enzyme to produce color. The intensity of this colored product is directly proportional to the concentration of GSK-3β [pS9] present in the original specimen.
MCF7 cells (ATCC HTB-22) were seeded into 96 well fate bottom plates at a density of 10000 cells/well. […] Cells were harvested and lysed in cell extraction buffer (10 mM Tris, pH 7.4, 100 mM NaCl, 1 mM EDTA, 1 mM EGTA, 1 mM NaF, 20 mM Na4P2O7, 2 mM Na3VO4, 1% Triton X-100, 10 vol % glycerol, 0.1 vol % SDS, 0.5 vol % deoxycholate, 1 mM phenylmethylsulfonylfluorid (PMSF)). The lysate were centrifuged for 10 min. at 4° C. and the supernatant were transferred to a new tube. 50 μl of sample diluent (standard diluent buffer, Biosource) were added and 100 μl of cell lysate transferred into the tube and vortexed. 100 μl of each diluted cell lysate were added to the appropriate ELISA well plate and incubated for 3 h at room temperature. The plates were washed 4 times with 1× wash buffer (Biosource). 50 μl of detection antibody (GSK3 (Ser9) detection antibody; BioSource) were added to each well and incubated for 30 min. at room temperature. The washing procedure was repeated between each step. 100 μl of HRP-linked secondary antibody (anti-mouse IgG HRP-linked antibody) were added to each well and incubated for 30 min. at room temperature. 100 μl of TMB substrate (0.05 vol % 3,3′,5,5′ tetramethylbenzidine, 0.1 vol % hydrogen peroxide, complex polypeptides in a buffered solution; Biosource) were added to each well and incubated for 30 min. at room temperature. Finally 100 μl of Stop solution (0.05 vol % α and β unsaturated carbonyl compound) were added to each well and the plate were shaked gently for a few seconds. The absorbance was measured at ? 450 nm (Wallac Victor2; Perkin Elmer, USA) within 30 min. after adding the stop solution.
The analysis of the data was performed using a statistical program (Excel; Microsoft, USA) and the IC50 of pGSK3 inhibition was determined.

OvCAR3 cells = test: Cellular proliferation/cytotoxicity assay (Alamar Blue), OvCAR3 cells; assay type: cell-based; conditions: Homo sapiens, OVCAR-3, 72 h, Alamar Blue (Resazurin), read-out: Anti-proliferative/Cytotoxic activity (OvCAR3 cells)
Description: Viabilities are expressed as % values.

A549 cells [2] = test: Cellular proliferation/cytotoxicity assay (Alamar Blue), A549 cells; conditions: Homo sapiens, A549, 72 h, read-out: Anti-proliferative/Cytotoxic activity (A549 cells)
Protocol: as §1

Row | SMILES | pIC50 (phospho-Akt (Ser473)) | pIC50 (A549 cells [1]) | pIC50 (phospho-GSK3 (Ser9)) | pIC50 (OvCAR3 cells) | pIC50 (A549 cells [2]) | pIC50 (phospho-Akt (Ser473); Homo sapiens)
1 | Cc1ccc(-c2nnc(C3CCN(Cc4ccc(-c5nc6c(C#N)cccn6c5-c5ccccc5)cc4)CC3)[nH]2)nc1 [Example 71, ′2-[4-({4-[5-(5-methylpyridin-2-yl)-4H-1,2,4-triazol-3-yl]piperidin-1-yl}methyl)phenyl]-3-phenylimidazo[1,2-a]pyridine-8-carbonitrile] | > 6.00 | > 5.00 |  |  |  | 
2 | N#Cc1cccn2c(-c3ccccc3)c(-c3ccc(CN4CCC(c5nnc(-c6ccc[nH]6)[nH]5)CC4)cc3)nc12 [Example 105, ′3-phenyl-2-[4-({4-[5-(1H-pyrrol-2-yl)-4H-1,2,4-triazol-3-yl]piperidin-1-yl}methyl)phenyl]imidazo[1,2-a]pyridine-8-carbonitrile] | > 6.00 | > 5.00 |  |  |  | 
3 | c1ccc(-c2nc(C3CCN(Cc4ccc(-c5nc6sccn6c5-c5nccs5)cc4)CC3)n[nH]2)nc1 [Example 42, 6-(4-{[4-(5-pyridin-2-yl-1,2,4-triazol-3-yl)piperidin-1-yl]methyl}phenyl)-5-(1,3-thiazol-2-yl)imidazo[2,1-b][1,3]thiazole] |  |  | < 5.00 | > 5.00 | > 5.00 | 
4 | Cc1cn2c(-c3ccccc3)c(-c3ccc(CN4CCC(c5nnc(-c6ccccn6)[nH]5)CC4)cc3)nc2s1 [Example 46, 2-methyl-5-phenyl-6-[4-({4-[5-(pyridin-2-yl)-4H-1,2,4-triazol-3-yl]piperidin-1-yl}methyl)phenyl]imidazo[2,1-b][1,3]thiazole] |  |  | 5.00 to 6.00 |  | > 5.00 | > 6.00
5 | Fc1cc(F)c2nc(-c3ccc(CN4CCC(c5nnc(-c6ccccn6)[nH]5)CC4)cc3)c(-c3ccccc3)n2c1 [Example 44, 6,8-Difluoro-3-phenyl-2-{4-[4-(5-pyridin-2-yl-4H-[1,2,4]triazol-3-yl)-piperidin-1-ylmethyl]-phenyl}-imidazo[1,2-a]pyridine] |  |  | 5.00 to 6.00 | > 5.00 | < 5.00 | > 6.00
6 | N#Cc1cccn2c(-c3ccccc3)c(-c3ccc(CN4CCC(c5nnc(-c6ccncc6)[nH]5)CC4)cc3)nc12 [Example 59, ′3-phenyl-2-(4-{[4-(5-pyridin-4-yl-4H-1,2,4-triazol-3-yl)piperidin-1-yl]methyl}phenyl)imidazo[1,2-a]pyridine-8-carbonitrile] | > 6.00 | > 5.00 |  |  |  | 
7 | N#Cc1cccn2c(-c3ccccc3)c(-c3ccc(CN4CCC(c5nnc(-c6cccs6)[nH]5)CC4)cc3)nc12 [Example 98, ′3-phenyl-2-[4-({4-[5-(2-thienyl)-4H-1,2,4-triazol-3-yl]piperidin-1-yl}methyl)phenyl]imidazo[1,2-a]pyridine-8-carbonitrile] | > 6.00 | < 5.00 |  |  |  | 
8 | Fc1ccccc1-c1c(-c2ccc(CN3CCC(c4n[nH]c(-c5ccccn5)n4)CC3)cc2)nc2ncccn12 [Example 41, 3-(2-fluorophenyl)-2-(4-{[4-(5-pyridin-2-yl-1,2,4-triazol-3-yl)piperidin-1-yl]methyl}phenyl)imidazo[1,2-a]pyrimidine] |  |  | 5.00 to 6.00 | > 5.00 | < 5.00 | 
9 | COc1ccn2c(-c3ccccc3)c(-c3ccc(CN4CCC(c5nnc(-c6cccc(C)n6)[nH]5)CC4)cc3)nc2c1 [Example 68, ′7-methoxy-2-[4-({4-[5-(6-methylpyridin-2-yl)-4H-1,2,4-triazol-3-yl]piperidin-1-yl}methyl)phenyl]-3-phenylimidazo[1,2-a]pyridine] | > 6.00 | > 5.00 |  |  |  | 
10 | N=C(N)c1cccn2c(-c3ccccc3)c(-c3ccc(CN4CCC(c5n[nH]c(-c6ccccn6)n5)CC4)cc3)nc12 [Example 33, 3-phenyl-2-(4-{[4-(5-pyridin-2-yl-1,2,4-triazol-3-yl)piperidin-1-yl]methyl}phenyl)imidazo[1,2-a]pyridine-8-carboximidamide] |  |  |  | > 5.00 | > 5.00 | 
